# Reference: patent publication US20250114338A1, “TETRAHYDRO-PYRIDO[3,4-b]INDOLE ESTROGEN RECEPTOR MODULATORS AND USES THEREOF” (Genentech, Inc., priority 2014, published 2025)
# pEC50: −log10 of the molar value.
# System: ER-alpha MCF7
# Test: ER-alpha MCF7 HCS EC50; stated as measured by in vitro cell proliferation assays of Examples 902 and 903
# Type: cell-based
# Settings: Homo sapiens, MCF7, MCF7 cells; Table 2
# Method in brief: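 MCF7 cells seeded 1000-2000 cells/well for 16 h, then treated with nine-point 1:2 DMSO dilution series in quadruplicate at 37 °C, 5% CO2 for 4 days. Viable cells quantified by CellTiter-Glo ATP luminescence; EC50 calculated. Controls: fulvestrant at final 100 nM, DMSO 0.2% v/v.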
row,pEC50,Compound
1,8.10,"C[C@@H]1Cc2c([nH]c3ccccc23)[C@@H](c2c(F)cc(NC3CN(CCCF)C3)cc2F)N1C[C@H](C)C(=O)O [Example 367, (2S)-3-[(1R,3R)-1-[2,6-difluoro-4-[[1-(3-fluoropropyl)azetidin-3-yl]amino]phenyl]-3-methyl-1,3,4,9-tetrahydropyrido[3,4-b]indol-2-yl]-2-methyl-propanoic acid]"
2,9.26,"C[C@@H]1Cc2c([nH]c3ccc(F)cc23)[C@@H](c2c(F)cc(OC3CN(CCCF)C3)cc2F)N1C[C@](C)(F)CO [Example 368, 3-(1-{2,6-Difluoro-4-[1-(3-fluoro-propyl)-azetidin-3-yloxy]-phenyl}-6-fluoro-3-methyl-1,3,4,9-tetrahydro-beta-carbolin-2-yl)-2-fluoro-2-methyl-propan-1-ol]"
3,7.62,"C[C@H]1Cc2c([nH]c3ccc(F)cc23)[C@H](c2c(F)cc(OC3CN(CCCF)C3)cc2F)N1C[C@@](C)(F)CO [Example 369, 3-((1S,3S)-1-(2,6-difluoro-4-((1-(3-fluoropropyl)azetidin-3-yl)oxy)phenyl)-6-fluoro-3-methyl-1,3,4,9-tetrahydro-2H-pyrido[3,4-b]indol-2-yl)-2-fluoro-2-methylpropan-1-ol]"
4,9.69,"C[C@@H]1Cc2c([nH]c3ccc(F)cc23)[C@@H](c2c(F)cc(OC3CN(CCCF)C3)cc2F)N1C[C@@](C)(F)CO [Example 370, 3-((1R,3R)-1-(2,6-difluoro-4-((1-(3-fluoropropyl)azetidin-3-yl)oxy)phenyl)-6-fluoro-3-methyl-1,3,4,9-tetrahydro-2H-pyrido[3,4-b]indol-2-yl)-2-fluoro-2-methylpropan-1-ol]"
5,8.05,"C[C@H]1Cc2c([nH]c3ccc(F)cc23)[C@H](c2c(F)cc(OC3CN(CCCF)C3)cc2F)N1C[C@](C)(F)CO [Example 371, 3-((1S,3S)-1-(2,6-difluoro-4-((1-(3-fluoropropyl)azetidin-3-yl)oxy)phenyl)-6-fluoro-3-methyl-1,3,4,9-tetrahydro-2H-pyrido[3,4-b]indol-2-yl)-2-fluoro-2-methylpropan-1-ol]"
6,9.70,"C[C@@H]1Cc2c([nH]c3ccc(F)cc23)[C@@H](c2c(F)cc(NC3CN(CCCF)C3)cc2F)N1CC(F)(F)F [Example 372, N-(3,5-difluoro-4-((1R,3R)-6-fluoro-3-methyl-2-(2,2,2-trifluoroethyl)-2,3,4,9-tetrahydro-1H-pyrido[3,4-b]indol-1-yl)phenyl)-1-(3-fluoropropyl)azetidin-3-amine]"
7,7.74,"C[C@H]1Cc2c([nH]c3ccc(F)cc23)[C@H](c2c(F)cc(NC3CN(CCCF)C3)cc2F)N1CC(F)(F)F [Example 373, N-(3,5-difluoro-4-((1S,3S)-6-fluoro-3-methyl-2-(2,2,2-trifluoroethyl)-2,3,4,9-tetrahydro-1H-pyrido[3,4-b]indol-1-yl)phenyl)-1-(3-fluoropropyl)azetidin-3-amine]"
8,8.81,"C[C@@H]1Cc2c([nH]c3ccccc23)[C@@H](c2c(F)cc(OCCN3CC(CF)C3)cc2F)N1CC(C)(C)C(=O)O [Example 374, 3-((1R,3R)-1-(2,6-difluoro-4-(2-(3-(fluoromethyl)azetidin-1-yl)ethoxy)phenyl)-3-methyl-1,3,4,9-tetrahydro-2H-pyrido[3,4-b]indol-2-yl)-2,2-dimethylpropanoic acid]"
9,9.12,"C[C@@H]1Cc2c([nH]c3ccccc23)[C@@H](c2c(F)cc(OC3CN(CCCF)C3)cc2F)N1C[C@H](CO)C(F)(F)F [Example 375, (R)-2-(((1R,3R)-1-(2,6-difluoro-4-((1-(3-fluoropropyl)azetidin-3-yl)oxy)phenyl)-3-methyl-1,3,4,9-tetrahydro-2H-pyrido[3,4-b]indol-2-yl)methyl)-3,3,3-trifluoropropan-1-ol]"
10,9.00,"C[C@@H]1Cc2c([nH]c3ccccc23)[C@@H](c2c(F)cc(OC3CN(CCCF)C3)cc2F)N1C[C@@H](CO)C(F)(F)F [Example 376, (S)-2-(((1R,3R)-1-(2,6-difluoro-4-((1-(3-fluoropropyl)azetidin-3-yl)oxy)phenyl)-3-methyl-1,3,4,9-tetrahydro-2H-pyrido[3,4-b]indol-2-yl)methyl)-3,3,3-trifluoropropan-1-ol]"
11,9.30,"C[C@@H]1Cc2c([nH]c3ccccc23)[C@@H](c2cnc(OC3CN(CCCF)C3)nc2)N1CC(C)(C)F [Example 377, (1R,3R)-2-(2-fluoro-2-methylpropyl)-1-(2-((1-(3-fluoropropyl)azetidin-3-yl)oxy)pyrimidin-5-yl)-3-methyl-2,3,4,9-tetrahydro-1H-pyrido[3,4-b]indole]"
12,7.55,"C[C@@H]1Cc2c([nH]c3ccccc23)[C@H](c2c(F)cc(OCCN3CC(CF)C3)cc2F)N1CC(C)(C)C(=O)O [Example 378, 3-[(1S,3R)-1-[2,6-difluoro-4-[2-[3-(fluoromethyl)azetidin-1-yl]ethoxy]phenyl]-3-methyl-1,3,4,9-tetrahydropyrido[3,4-b]indol-2-yl]-2,2-dimethyl-propanoic acid]"
13,9.55,"C[C@@H]1Cc2c([nH]c3ccccc23)[C@@H](c2c(F)cc(OCCN3CC(CF)C3)cc2F)N1CC(C)(F)F [Example 379, (1R,3R)-1-(2,6-difluoro-4-(2-(3-(fluoromethyl)azetidin-1-yl)ethoxy)phenyl)-2-(2,2-difluoropropyl)-3-methyl-2,3,4,9-tetrahydro-1H-pyrido[3,4-b]indole]"
14,9.73,"C[C@@H]1Cc2c([nH]c3ccccc23)[C@@H](c2ccc([C@@H](O)C3CN(CCCF)C3)cc2)N1CC(C)(C)F [Example 380, (S)-(4-((1R,3R)-2-(2-fluoro-2-methylpropyl)-3-methyl-2,3,4,9-tetrahydro-1H-pyrido[3,4-b]indol-1-yl)phenyl)(1-(3-fluoropropyl)azetidin-3-yl)methanol]"

# More lines, now with the values behind:
row,Compound,pEC50
1,"C[C@H](CN1[C@H](c2c(F)cc(NC3CN(CCCF)C3)cc2F)c2[nH]c3ccccc3c2C[C@H]1C)C(=O)O [Example 354, (2R)-3-[(1R,3R)-1-[2,6-difluoro-4-[[1-(3-fluoropropyl)azetidin-3-yl]amino]phenyl]-3-methyl-1,3,4,9-tetrahydropyrido[3,4-b]indol-2-yl]-2-methyl-propanoic acid]",9.00
2,"C[C@H]1Cc2c([nH]c3ccc(F)cc23)[C@H](c2c(F)cc(OCCN3CC(CF)C3)cc2F)N1CC(F)(F)F [Example 355, (1S,3S)-1-(2,6-difluoro-4-(2-(3-(fluoromethyl)azetidin-1-yl)ethoxy)phenyl)-6-fluoro-3-methyl-2-(2,2,2-trifluoroethyl)-2,3,4,9-tetrahydro-1H-pyrido[3,4-b]indole]",7.53
3,"C[C@@H]1Cc2c([nH]c3ccc(F)cc23)[C@@H](c2c(F)cc(OCCN3CC(CF)C3)cc2F)N1CC(F)(F)F [Example 356, (1R,3R)-1-(2,6-difluoro-4-(2-(3-(fluoromethyl)azetidin-1-yl)ethoxy)phenyl)-6-fluoro-3-methyl-2-(2,2,2-trifluoroethyl)-2,3,4,9-tetrahydro-1H-pyrido[3,4-b]indole]",9.29
4,"C[C@H]1Cc2c([nH]c3ccc(F)cc23)[C@H](c2c(F)cc(OC3CN(CCCF)C3)cc2F)N1CC(F)(F)F [Example 357, (1S,3S)-1-(2,6-difluoro-4-((1-(3-fluoropropyl)azetidin-3-yl)oxy)phenyl)-6-fluoro-3-methyl-2-(2,2,2-trifluoroethyl)-2,3,4,9-tetrahydro-1H-pyrido[3,4-b]indole]",7.58
5,"C[C@@H]1Cc2c([nH]c3ccc(F)cc23)[C@@H](c2c(F)cc(OC3CN(CCCF)C3)cc2F)N1CC(F)(F)F [Example 358, (1R,3R)-1-(2,6-difluoro-4-((1-(3-fluoropropyl)azetidin-3-yl)oxy)phenyl)-6-fluoro-3-methyl-2-(2,2,2-trifluoroethyl)-2,3,4,9-tetrahydro-1H-pyrido[3,4-b]indole]",9.38
6,"C[C@@H]1Cc2c([nH]c3ccc(F)cc23)[C@@H](c2c(F)cc(OCCN3CC(CF)C3)cc2F)N1CC(F)(F)CO [Example 359, 3-((1R,3R)-1-(2,6-difluoro-4-(2-(3-(fluoromethyl)azetidin-1-yl)ethoxy)phenyl)-6-fluoro-3-methyl-1,3,4,9-tetrahydro-2H-pyrido[3,4-b]indol-2-yl)-2,2-difluoropropan-1-ol]",9.26
7,"C[C@H]1Cc2c([nH]c3ccc(F)cc23)[C@H](c2c(F)cc(OCCN3CC(CF)C3)cc2F)N1CC(F)(F)CO [Example 360, 3-((1S,3S)-1-(2,6-difluoro-4-(2-(3-(fluoromethyl)azetidin-1-yl)ethoxy)phenyl)-6-fluoro-3-methyl-1,3,4,9-tetrahydro-2H-pyrido[3,4-b]indol-2-yl)-2,2-difluoropropan-1-ol]",8.05
8,"C[C@@H]1Cc2c([nH]c3ccccc23)[C@@H](c2c(F)cc(OCCN3CC(CF)C3)cc2F)N1CCC(F)(F)F [Example 361, (1R,3R)-1-[2,6-difluoro-4-[2-[3-(fluoromethyl)azetidin-1-yl]ethoxy]phenyl]-3-methyl-2-(3,3,3-trifluoropropyl)-1,3,4,9-tetrahydropyrido[3,4-b]indole]",8.52
9,"C[C@@H]1Cc2c([nH]c3ccccc23)[C@H](c2c(F)cc(OCCN3CC(CF)C3)cc2F)N1CCC(F)(F)F [Example 362, (1S,3R)-1-[2,6-difluoro-4-[2-[3-(fluoromethyl)azetidin-1-yl]ethoxy]phenyl]-3-methyl-2-(3,3,3-trifluoropropyl)-1,3,4,9-tetrahydropyrido[3,4-b]indole]",< 7.00
10,"C[C@@H]1Cc2c([nH]c3ccc(F)cc23)[C@@H](c2c(F)cc(OC3CN(CCCF)C3)cc2F)N1CC(F)(F)CO [Example 363, 3-((1R,3R)-1-(2,6-difluoro-4-((1-(3-fluoropropyl)azetidin-3-yl)oxy)phenyl)-6-fluoro-3-methyl-1,3,4,9-tetrahydro-2H-pyrido[3,4-b]indol-2-yl)-2,2-difluoropropan-1-ol]",9.78
11,"C[C@H]1Cc2c([nH]c3ccc(F)cc23)[C@H](c2c(F)cc(OC3CN(CCCF)C3)cc2F)N1CC(F)(F)CO [Example 364, 3-((1S,3S)-1-(2,6-difluoro-4-((1-(3-fluoropropyl)azetidin-3-yl)oxy)phenyl)-6-fluoro-3-methyl-1,3,4,9-tetrahydro-2H-pyrido[3,4-b]indol-2-yl)-2,2-difluoropropan-1-ol]",8.05
